Assay results taken from ChEMBL document CHEMBL4507270 (2021).
Activity calls are given as the source filed them. No cut-off for these calls is given here.

Key:
[1] = target: T1, Discoidin domain-containing receptor 2 (Homo sapiens, UniProt Q16832); experiment: NanoBRET assay (SGC Frankfurt) with DDR2
T1 sequence (Q16832 whole entry): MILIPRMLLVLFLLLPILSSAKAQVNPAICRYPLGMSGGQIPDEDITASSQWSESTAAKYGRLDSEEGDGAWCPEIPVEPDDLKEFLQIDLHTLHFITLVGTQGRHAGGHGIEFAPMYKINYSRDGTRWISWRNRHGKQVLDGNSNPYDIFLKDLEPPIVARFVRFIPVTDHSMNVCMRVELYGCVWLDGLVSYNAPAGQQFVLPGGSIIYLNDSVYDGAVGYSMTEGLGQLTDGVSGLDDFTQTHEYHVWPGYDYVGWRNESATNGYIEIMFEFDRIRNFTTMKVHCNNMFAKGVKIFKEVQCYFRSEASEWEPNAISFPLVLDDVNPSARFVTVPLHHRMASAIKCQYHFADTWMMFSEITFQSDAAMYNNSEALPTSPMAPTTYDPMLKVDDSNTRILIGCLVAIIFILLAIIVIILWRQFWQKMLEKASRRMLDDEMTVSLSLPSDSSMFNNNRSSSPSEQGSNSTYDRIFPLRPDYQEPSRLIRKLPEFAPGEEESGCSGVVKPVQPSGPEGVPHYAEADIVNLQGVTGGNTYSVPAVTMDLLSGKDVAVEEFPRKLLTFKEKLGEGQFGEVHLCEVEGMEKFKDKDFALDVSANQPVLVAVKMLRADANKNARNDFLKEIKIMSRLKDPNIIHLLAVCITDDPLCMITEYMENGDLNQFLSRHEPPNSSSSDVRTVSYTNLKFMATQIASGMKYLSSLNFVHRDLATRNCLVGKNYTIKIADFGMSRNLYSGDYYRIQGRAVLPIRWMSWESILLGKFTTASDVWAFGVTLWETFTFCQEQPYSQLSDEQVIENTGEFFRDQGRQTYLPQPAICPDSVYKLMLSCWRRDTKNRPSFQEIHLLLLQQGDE

[2] = NanoBRET assay (SGC Frankfurt) with LYN; settings: Homo sapiens
[3] = target: Tyrosine-protein kinase ABL1 (Homo sapiens) (UniProt P00519)
[4] = target: Tyrosine-protein kinase ABL1 (Homo sapiens) (UniProt P00519); remark: listed apart in the source
[5] = target: RAC-alpha serine/threonine-protein kinase (Homo sapiens) (UniProt P31749)
[6] = target: Calcium/calmodulin-dependent protein kinase type 1G (Homo sapiens) (UniProt Q96NX5)
[7] = target: Tyrosine-protein kinase CSK (Homo sapiens) (UniProt P41240)
[8] = system: Epidermal growth factor receptor (Homo sapiens), P00533 [UNDEFINED MUTATION]
[9] = system: Receptor-type tyrosine-protein kinase FLT3 (Homo sapiens), P36888 [D835V]
[10] = system: Receptor-type tyrosine-protein kinase FLT3 (Homo sapiens), P36888 [UNDEFINED MUTATION]
[11] = target: Tyrosine-protein kinase Fyn (Homo sapiens) (UniProt P06241)
[12] = target: Hormonally up-regulated neu tumor-associated kinase (Homo sapiens) (UniProt P57058)
[13] = target: LIM domain kinase 1 (Homo sapiens) (UniProt P53667)
[14] = target: LIM domain kinase 2 (Homo sapiens) (UniProt P53671)
[15] = target: Mitogen-activated protein kinase kinase kinase 4 (Homo sapiens) (UniProt Q9Y6R4)
[16] = target: Mitogen-activated protein kinase kinase kinase kinase 2 (Homo sapiens) (UniProt Q12851)
[17] = target: Hepatocyte growth factor receptor (Homo sapiens) (UniProt P08581)
[18] = target: Macrophage-stimulating protein receptor (Homo sapiens) (UniProt Q04912)
[19] = target: Muscle, skeletal receptor tyrosine-protein kinase (Homo sapiens) (UniProt O15146)
[20] = target: Serine/threonine-protein kinase Nek4 (Homo sapiens) (UniProt P51957)
[21] = target: Serine/threonine-protein kinase Nek6 (Homo sapiens) (UniProt Q9HC98)
[22] = target: Serine/threonine-protein kinase PAK 3 (Homo sapiens) (UniProt O75914)
[23] = target: Serine/threonine-protein kinase PAK 4 (Homo sapiens) (UniProt O96013)
[24] = target: Cyclin-dependent kinase 15 (Homo sapiens) (UniProt Q96Q40)
[25] = target: Phosphorylase b kinase regulatory subunit alpha, liver isoform (Homo sapiens) (UniProt P46019)
[26] = target: Phosphatidylinositol 5-phosphate 4-kinase type-2 gamma (Homo sapiens) (UniProt Q8TBX8)
[27] = target: cGMP-dependent protein kinase 1 (Homo sapiens) (UniProt Q13976)
[28] = target: Proto-oncogene tyrosine-protein kinase receptor Ret (Homo sapiens) (UniProt P07949)
[29] = target: Rho-associated protein kinase 2 (Homo sapiens) (UniProt O75116)
[30] = target: Tyrosine-protein kinase Srms (Homo sapiens) (UniProt Q9H3Y6)
[31] = target: High affinity nerve growth factor receptor (Homo sapiens) (UniProt P04629)
[32] = target: Mitogen-activated protein kinase kinase kinase 20 (Homo sapiens) (UniProt Q9NYL2)
[33] = target: Sodium-dependent dopamine transporter (Homo sapiens) (UniProt Q01959); settings: Compound concentration 10.0 uM
Rattus norvegicus = species: Rattus norvegicus; settings: Compound concentration 10.0 uM
[34] = Compound concentration 1000.0 nM
[35] = Compound concentration 100.0 nM

Chain of Tyrosine-protein kinase ABL1 (Homo sapiens) (P00519 whole entry): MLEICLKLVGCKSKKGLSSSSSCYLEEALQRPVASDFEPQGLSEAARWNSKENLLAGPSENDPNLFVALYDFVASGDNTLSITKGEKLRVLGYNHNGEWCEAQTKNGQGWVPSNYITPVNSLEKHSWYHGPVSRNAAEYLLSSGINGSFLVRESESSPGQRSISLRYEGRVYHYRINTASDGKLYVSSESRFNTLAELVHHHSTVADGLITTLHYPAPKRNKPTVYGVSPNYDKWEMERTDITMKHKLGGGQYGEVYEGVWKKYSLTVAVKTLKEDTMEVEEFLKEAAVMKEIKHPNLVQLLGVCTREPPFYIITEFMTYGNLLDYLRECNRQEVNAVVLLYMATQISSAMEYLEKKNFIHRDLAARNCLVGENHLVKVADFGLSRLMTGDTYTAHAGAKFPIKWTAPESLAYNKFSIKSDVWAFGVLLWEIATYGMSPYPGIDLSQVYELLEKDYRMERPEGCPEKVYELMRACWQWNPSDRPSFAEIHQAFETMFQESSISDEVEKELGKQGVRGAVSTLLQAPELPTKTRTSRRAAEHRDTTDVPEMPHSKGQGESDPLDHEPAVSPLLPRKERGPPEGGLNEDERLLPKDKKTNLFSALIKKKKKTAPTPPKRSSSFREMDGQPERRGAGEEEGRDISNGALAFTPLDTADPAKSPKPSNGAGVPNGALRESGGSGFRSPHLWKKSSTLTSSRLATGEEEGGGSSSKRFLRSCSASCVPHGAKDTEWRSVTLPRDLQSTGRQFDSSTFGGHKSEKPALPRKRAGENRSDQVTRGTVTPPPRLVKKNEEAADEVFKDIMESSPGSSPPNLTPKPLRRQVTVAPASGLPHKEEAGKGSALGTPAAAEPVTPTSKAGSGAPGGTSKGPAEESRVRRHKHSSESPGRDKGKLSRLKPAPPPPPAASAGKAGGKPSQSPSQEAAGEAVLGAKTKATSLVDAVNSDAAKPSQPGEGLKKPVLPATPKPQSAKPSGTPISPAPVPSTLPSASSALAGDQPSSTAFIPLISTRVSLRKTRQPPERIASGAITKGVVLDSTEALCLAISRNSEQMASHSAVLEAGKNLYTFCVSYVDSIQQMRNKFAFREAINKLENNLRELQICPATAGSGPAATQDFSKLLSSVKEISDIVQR
Chain of Serine/threonine-protein kinase Nek4 (Homo sapiens) (P51957 whole entry, looked up): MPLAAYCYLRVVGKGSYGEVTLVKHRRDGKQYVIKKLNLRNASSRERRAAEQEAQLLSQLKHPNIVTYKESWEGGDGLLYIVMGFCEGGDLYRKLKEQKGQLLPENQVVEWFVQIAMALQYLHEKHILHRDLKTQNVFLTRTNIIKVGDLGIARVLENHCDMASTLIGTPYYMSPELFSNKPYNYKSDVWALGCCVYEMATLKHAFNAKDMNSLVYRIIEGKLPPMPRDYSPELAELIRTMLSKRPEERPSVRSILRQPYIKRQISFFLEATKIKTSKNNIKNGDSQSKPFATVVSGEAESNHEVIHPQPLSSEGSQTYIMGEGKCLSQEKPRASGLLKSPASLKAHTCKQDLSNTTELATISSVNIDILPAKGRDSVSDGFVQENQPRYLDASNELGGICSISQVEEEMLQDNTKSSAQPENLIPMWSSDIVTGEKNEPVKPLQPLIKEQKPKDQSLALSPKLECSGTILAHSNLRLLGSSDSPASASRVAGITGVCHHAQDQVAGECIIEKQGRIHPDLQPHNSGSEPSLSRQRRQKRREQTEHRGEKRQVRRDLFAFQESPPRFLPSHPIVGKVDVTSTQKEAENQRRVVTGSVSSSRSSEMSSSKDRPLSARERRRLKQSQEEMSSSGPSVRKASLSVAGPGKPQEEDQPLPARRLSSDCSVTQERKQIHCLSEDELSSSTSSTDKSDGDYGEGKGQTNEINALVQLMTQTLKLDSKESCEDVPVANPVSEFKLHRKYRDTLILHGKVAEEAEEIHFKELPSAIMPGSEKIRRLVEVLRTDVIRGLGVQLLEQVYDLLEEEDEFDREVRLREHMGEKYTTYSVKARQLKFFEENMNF
Chain of Mitogen-activated protein kinase kinase kinase kinase 2 (Homo sapiens) (Q12851 whole entry): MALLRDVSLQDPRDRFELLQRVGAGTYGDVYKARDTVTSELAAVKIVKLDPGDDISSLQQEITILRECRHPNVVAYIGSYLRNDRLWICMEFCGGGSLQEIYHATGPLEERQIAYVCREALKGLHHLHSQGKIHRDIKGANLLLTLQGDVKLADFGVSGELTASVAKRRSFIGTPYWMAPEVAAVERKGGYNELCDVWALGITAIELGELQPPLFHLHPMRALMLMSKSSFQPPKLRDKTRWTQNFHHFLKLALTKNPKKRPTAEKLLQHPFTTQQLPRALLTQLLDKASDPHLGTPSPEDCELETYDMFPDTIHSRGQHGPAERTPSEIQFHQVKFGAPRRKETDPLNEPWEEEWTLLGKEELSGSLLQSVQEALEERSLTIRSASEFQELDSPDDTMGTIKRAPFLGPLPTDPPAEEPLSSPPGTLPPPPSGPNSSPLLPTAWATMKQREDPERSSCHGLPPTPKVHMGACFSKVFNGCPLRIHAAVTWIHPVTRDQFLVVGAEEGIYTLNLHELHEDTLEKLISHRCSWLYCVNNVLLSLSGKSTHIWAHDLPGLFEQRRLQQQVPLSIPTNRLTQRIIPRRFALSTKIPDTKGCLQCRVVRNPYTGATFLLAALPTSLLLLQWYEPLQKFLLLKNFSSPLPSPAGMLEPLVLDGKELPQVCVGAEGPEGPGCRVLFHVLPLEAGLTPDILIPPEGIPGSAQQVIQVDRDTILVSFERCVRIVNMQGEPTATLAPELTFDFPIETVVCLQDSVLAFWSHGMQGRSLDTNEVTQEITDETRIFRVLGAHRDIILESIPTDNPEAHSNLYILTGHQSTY
Chain of Serine/threonine-protein kinase PAK 3 (Homo sapiens) (O75914 whole entry, looked up): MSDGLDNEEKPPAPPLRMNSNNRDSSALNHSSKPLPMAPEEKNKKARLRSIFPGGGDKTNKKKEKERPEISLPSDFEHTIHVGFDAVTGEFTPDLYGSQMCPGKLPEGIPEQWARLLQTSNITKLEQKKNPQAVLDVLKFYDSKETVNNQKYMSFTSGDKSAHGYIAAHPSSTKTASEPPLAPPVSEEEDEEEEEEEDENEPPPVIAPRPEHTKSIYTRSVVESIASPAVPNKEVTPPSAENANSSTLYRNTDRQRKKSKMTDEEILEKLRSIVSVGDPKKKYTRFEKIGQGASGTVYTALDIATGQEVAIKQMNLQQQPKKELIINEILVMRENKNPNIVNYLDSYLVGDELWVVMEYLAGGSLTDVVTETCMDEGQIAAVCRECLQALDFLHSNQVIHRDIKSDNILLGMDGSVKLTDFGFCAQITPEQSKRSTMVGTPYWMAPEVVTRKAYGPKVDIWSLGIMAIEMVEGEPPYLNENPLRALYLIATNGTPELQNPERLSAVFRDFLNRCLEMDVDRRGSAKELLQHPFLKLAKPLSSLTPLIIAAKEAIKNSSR
Chain of High affinity nerve growth factor receptor (Homo sapiens) (P04629 33-796 limits assumed): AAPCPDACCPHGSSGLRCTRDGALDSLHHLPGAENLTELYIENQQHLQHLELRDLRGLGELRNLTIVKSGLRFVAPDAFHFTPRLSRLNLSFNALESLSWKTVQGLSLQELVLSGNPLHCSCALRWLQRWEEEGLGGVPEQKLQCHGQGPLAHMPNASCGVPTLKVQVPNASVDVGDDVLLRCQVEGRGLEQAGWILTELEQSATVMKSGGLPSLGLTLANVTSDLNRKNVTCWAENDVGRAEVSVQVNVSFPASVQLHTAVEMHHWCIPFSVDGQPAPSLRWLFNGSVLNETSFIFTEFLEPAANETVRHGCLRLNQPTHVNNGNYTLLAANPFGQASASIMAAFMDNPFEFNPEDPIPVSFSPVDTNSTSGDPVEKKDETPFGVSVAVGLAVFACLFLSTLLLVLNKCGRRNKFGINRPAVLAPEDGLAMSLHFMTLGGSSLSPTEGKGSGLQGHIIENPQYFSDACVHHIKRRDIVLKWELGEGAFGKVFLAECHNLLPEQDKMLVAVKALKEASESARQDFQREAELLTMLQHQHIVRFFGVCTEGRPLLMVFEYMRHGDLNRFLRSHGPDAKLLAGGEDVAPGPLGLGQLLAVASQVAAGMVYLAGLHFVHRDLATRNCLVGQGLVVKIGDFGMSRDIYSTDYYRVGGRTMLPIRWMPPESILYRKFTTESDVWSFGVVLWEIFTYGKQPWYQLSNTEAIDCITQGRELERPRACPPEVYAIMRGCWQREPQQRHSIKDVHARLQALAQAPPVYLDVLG
Chain of Muscle, skeletal receptor tyrosine-protein kinase (Homo sapiens) (O15146 whole entry): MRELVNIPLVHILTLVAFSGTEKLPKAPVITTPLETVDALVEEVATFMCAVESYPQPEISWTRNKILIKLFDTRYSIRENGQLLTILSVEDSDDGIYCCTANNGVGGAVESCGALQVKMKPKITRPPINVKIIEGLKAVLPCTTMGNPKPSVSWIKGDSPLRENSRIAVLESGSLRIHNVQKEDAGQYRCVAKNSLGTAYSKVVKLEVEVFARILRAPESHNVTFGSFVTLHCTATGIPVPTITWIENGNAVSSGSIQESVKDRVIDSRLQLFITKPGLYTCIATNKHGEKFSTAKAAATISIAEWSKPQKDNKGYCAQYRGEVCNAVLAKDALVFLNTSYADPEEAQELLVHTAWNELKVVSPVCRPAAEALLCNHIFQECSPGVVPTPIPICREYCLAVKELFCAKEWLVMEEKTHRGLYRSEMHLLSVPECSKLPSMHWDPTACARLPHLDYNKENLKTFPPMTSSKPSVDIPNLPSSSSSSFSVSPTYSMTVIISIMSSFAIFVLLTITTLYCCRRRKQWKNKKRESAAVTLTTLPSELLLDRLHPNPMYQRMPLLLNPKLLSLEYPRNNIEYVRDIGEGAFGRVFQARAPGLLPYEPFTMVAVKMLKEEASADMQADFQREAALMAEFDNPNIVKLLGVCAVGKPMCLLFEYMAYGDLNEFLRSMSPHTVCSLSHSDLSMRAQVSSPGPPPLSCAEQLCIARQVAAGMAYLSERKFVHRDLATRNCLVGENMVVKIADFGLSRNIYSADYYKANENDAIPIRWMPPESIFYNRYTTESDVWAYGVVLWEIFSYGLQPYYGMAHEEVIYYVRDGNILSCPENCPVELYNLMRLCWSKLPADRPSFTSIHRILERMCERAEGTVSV

## Cc1cc(NC(=O)c2cccc(S(F)(F)(F)(F)F)c2)cc(-n2ccn3nc(-c4cccnc4)cc23)c1 [BAY-309]
[1]
  EC50: 2.7 µM (not active)
  IC50: 9.3 µM (not active)
[2]
  EC50: > 50 µM (not active)
  IC50: 7 µM (not active)
[3]; [34]
  residual activity: 52.2%
[4]; [34]
  residual activity: 73.6%
[5]; [34]
  residual activity: 100%
[6]; [34]
  residual activity: 100%
[7]; [34]
  residual activity: 100%
[8]; [34]
  residual activity: 100%
[9]; [34]
  residual activity: 100%
[10]; [34]
  residual activity: 66.1%
[11]; [34]
  residual activity: 81.3%
[12]; [34]
  residual activity: 77.6%
[13]; [34]
  residual activity: 100%
[14]; [34]
  residual activity: 95.3%
[15]; [34]
  residual activity: 53.6%
[16]; [34]
  residual activity: 100%
[17]; [34]
  residual activity: 77.3%
[18]; [34]
  residual activity: 71%
[19]; [34]
  residual activity: 82%
[20]; [34]
  residual activity: 92.9%
[21]; [34]
  residual activity: 97%
[22]; [34]
  residual activity: 100%
[23]; [34]
  residual activity: 91.8%
[24]; [34]
  residual activity: 59.9%
[25]; [34]
  residual activity: 100%
[26]; [34]
  residual activity: 99.1%
[27]; [34]
  residual activity: 100%
[28]; [34]
  residual activity: 100%
[29]; [34]
  residual activity: 87.6%
[30]; [34]
  residual activity: 86.9%
[31]; [34]
  residual activity: 40.2%
[32]; [34]
  residual activity: 84.4%
[33]
  inhibition: 38.1%
Rattus norvegicus
  inhibition: 67.8%

## Cc1cc(C)c(-n2ccn3nc(-c4cccnc4)cc23)cc1NC(=O)c1cc(C#N)cc(S(F)(F)(F)(F)F)c1 [BAY-826]
[1]
  EC50: 0.00054 µM (active)
  IC50: 0.003 µM (active)
[2]
  EC50: 7.4 µM (not active)
  IC50: 8.2 µM (not active)
[3]; [35]
  residual activity: 29.2%
[4]; [35]
  residual activity: 74.6%
[5]; [35]
  residual activity: 90.9%
[6]; [35]
  residual activity: 100%
[7]; [35]
  residual activity: 77.9%
[8]; [35]
  residual activity: 88.5%
[9]; [35]
  residual activity: 85.2%
[10]; [35]
  residual activity: 87.7%
[11]; [35]
  residual activity: 97.5%
[12]; [35]
  residual activity: 83%
[13]; [35]
  residual activity: 83.6%
[14]; [35]
  residual activity: 89%
[15]; [35]
  residual activity: 98.1%
[16]; [35]
  residual activity: 53.1%
[17]; [35]
  residual activity: 82.8%
[18]; [35]
  residual activity: 75.6%
[19]; [35]
  residual activity: 78.6%
[20]; [35]
  residual activity: 90.2%
[21]; [35]
  residual activity: 93.9%
[22]; [35]
  residual activity: 26.1%
[23]; [35]
  residual activity: 70.4%
[24]; [35]
  residual activity: 76%
[25]; [35]
  residual activity: 78.3%
[26]; [35]
  residual activity: 89.9%
[27]; [35]
  residual activity: 100%
[28]; [35]
  residual activity: 82%
[29]; [35]
  residual activity: 66.2%
[30]; [35]
  residual activity: 67.4%
[31]; [35]
  residual activity: 74.8%
[32]; [35]
  residual activity: 97.5%
[33]
  inhibition: 10.7%
Rattus norvegicus
  inhibition: 59.1%
